# Assays:
# [1] = test system: TNFα release from THP-1 cells; experiment: Inhibition of TNFα release from LPS-stimulated THP-1 cells, ELISA; type: cell-based; details: Homo sapiens, THP-1, THP-1 cells, read-out: [CELL] THP-1, IC50, TNF ALPHA, ELISA
# Outline: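 Human THP-1 monocytes, 10^6 cells/ml in RPMI with 10% FBS, no serum or 1% HSA, preincubated 30 min at 37 °C with compound (≤0.5% DMSO), then stimulated with 10 μg/ml LPS for 18 h. Supernatant TNFα measured by ELISA; IC50 from non-linear dose-response regression.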
# p38α = molecular target: T1, p38α (Homo sapiens, UniProt Q16539); experiment: p38 MAP Kinase assay: inhibition of ATF2 phosphorylation, ELISA; type: biochemical; details: for IC50: ATF2 phosphorylation, read-out: [ENZ] P38 ALPHA, IC50, ELISA; for inhibition at 10 µM: substrate ATF2, read-out: [ENZ] P38 ALPHA, PCT INH, ELISA (10 uM;ATF2) (Percent)
# T1 construct: p38 MAP Kinases are recombinant human full-length proteins with an amino-terminal GST fusion; GST (N); purchased Upstate Biotechnology Inc; host or cells: E. coli
# Outline: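 GST-tagged full-length human p38 MAP kinase with GST-ATF2 (aa 19–96; 1.25 μM) and 40 μM ATP in HEPES pH 7.5 buffer, without (Method I) or with (Method II) 1% human serum albumin. Compound pre-incubated 15 min at room temperature; reaction 30 min at 37 °C; ATF2 Thr69 phosphorylation measured by ELISA (A450).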
# T1 sequence (Q16539 whole entry, the tested form may be a part): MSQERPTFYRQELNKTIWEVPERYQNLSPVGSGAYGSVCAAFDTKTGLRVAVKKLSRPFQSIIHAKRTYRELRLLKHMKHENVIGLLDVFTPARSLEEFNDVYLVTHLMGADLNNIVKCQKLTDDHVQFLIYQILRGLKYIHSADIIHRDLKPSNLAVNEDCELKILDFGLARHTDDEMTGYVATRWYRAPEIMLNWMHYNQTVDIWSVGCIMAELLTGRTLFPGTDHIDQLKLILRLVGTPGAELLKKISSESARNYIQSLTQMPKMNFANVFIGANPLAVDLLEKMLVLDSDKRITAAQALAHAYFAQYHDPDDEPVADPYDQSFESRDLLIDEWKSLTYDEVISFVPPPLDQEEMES
SMILES,IC50 [1],IC50 (p38α),inhibition at 10 µM (p38α)
"Cc1ccc(C)c(-c2cccc(C(=O)Nc3ccc(OCCN4CCOCC4)c4ccccc34)c2)c1 [Compound B287, 2′,5′-dimethyl-biphenyl-3-carboxylic acid [4-(2-morpholin-4-yl-ethoxy)-naphthalen-1-yl]-amide]",5 µM,934 nM,
O=C(Nc1ccc(OCCN2CCOCC2)c2ccccc12)c1cc(F)cc(N2CCN(c3ccc(F)cc3)CC2)c1 [Compound B203],> 10 µM,> 10000 nM,
"CCN(C)c1cc(C(=O)Nc2ccc(OCCN3CCOCC3)c3ccccc23)ccn1 [Compound B133, 2-(Ethyl-methyl-amino)-N-[4-(2-morpholin-4-yl-ethoxy)-naphthalen-1-yl]-isonicotinamide]",8.5 µM,7680 nM,52%
CC1CCCN1c1nccc(Oc2ccc(NC(=O)c3cc(F)cc(N4CCOCC4)c3)c3ccccc23)n1 (stereo not drawn) [Compound B355],0.878 µM,68.7 nM,
"O=C(Nc1ccc(OCCN2CCOCC2)c2ccccc12)c1ccnc(N2CCCC2)c1 [Compound B45, N-[4-(2-Morpholin-4-yl-ethoxy)-naphthalen-1-yl]-2-pyrrolidin-1-yl-isonicotinamide]",1.19 µM,2120 nM,
"CCOC(=O)C1CCN(CCOc2ccc(NC(=O)c3cc(F)cc(N4CCCCC4)c3)c3ccccc23)CC1 [Compound B160, 1-{2-[4-(3-Fluoro-5-piperidin-1-yl-benzoylamino)-naphthalen-1-yloxy]-ethyl}-piperidine-4-carboxylic acid ethyl ester]",> 10 µM,1820 nM,58.5%
COc1ccc(C(C)C)cc1-c1cccc(C(=O)Nc2ccc(OCCN3CCOCC3)c3ccccc23)c1 [Compound B294],> 10 µM,> 10000 nM,
"O=C(Nc1ccc(OCCN2CCC(CO)CC2)c2ccccc12)c1cc(F)cc(N2CCCCC2)c1 [Compound B163, 3-Fluoro-N-{4-[2-(4-hydroxymethyl-piperidin-1-yl)-ethoxy]-naphthalen-1-yl}-5-piperidin-1-yl-benzamide]",> 10 µM,4840 nM,57%
O=C(Nc1ccc(Oc2ccnc(NC3CCS(=O)(=O)C3)n2)c2ccccc12)c1cc(F)cc(N2CCCCC2)c1 (stereo not drawn) [Compound B406],0.117 µM,19.6 nM,
Cc1cc(F)ccc1-c1cccc(C(=O)Nc2ccc(OCCN3CCOCC3)c3ccccc23)c1 [Compound B245],1.14 µM,631 nM,
Cc1cccc(-c2cccc(C(=O)Nc3ccc(OCCN4CCOCC4)c4ccccc34)c2)c1 [Compound B104],4.44 µM,965 nM,66%
COc1ccc(-c2cccc(C(=O)Nc3ccc(OCCN4CCOCC4)c4ccccc34)c2)cc1F [Compound B290],> 10 µM,> 10000 nM,
COCC(C)Nc1nccc(Oc2ccc(NC(=O)c3cc(F)cc(N4CCOCC4)c3)c3ccccc23)n1 (stereo not drawn) [Compound B353],0.0926 µM,3.9 nM,
"CC1CCN(c2cc(C(=O)Nc3ccc(OCCN4CCOCC4)c4ccccc34)ccn2)CC1 [Compound B128, 4-Methyl-3,4,5,6-tetrahydro-2 H-[1,2′]bipyridinyl-4′-carboxylic acid [4-(2-morpholin-4-yl-ethoxy)-naphthalen-1-yl]-amide]",8.71 µM,1150 nM,82%
COc1ccccc1-c1cccc(C(=O)Nc2ccc(OCCN3CCOCC3)c3ccccc23)c1 [Compound B90],5.25 µM,1330 nM,78%
O=C(Nc1ccc(OCCN2CCOCC2)c2ccccc12)c1cccc(-c2ccc(F)c(Cl)c2)c1 [Compound B275],3.57 µM,3980 nM,
"O=C(Nc1ccc(CN2CCOCC2)c2ccccc12)c1cc(F)cc(N2CCOCC2)c1 [Compound B316, 3-Fluoro-5-morpholin-4-yl-N-(4-morpholin-4-ylmethyl-naphthalen-1-yl)-benzamide]",0.879 µM,1200 nM,
"O=C(Nc1ccc(Oc2ccnc(NCC3CCCO3)n2)c2ccccc12)c1cc(F)cc(N2CCCCC2)c1 (stereo not drawn) [Compound B386, 3-Fluoro-5-piperidin-1-yl-N-[4-({2-[(tetrahydrofuran-2-ylmethyl)amino]pyrimidin-4-yl}oxy)-1-naphthyl]benzamide]",0.0262 µM,1.8 nM,
CN(CCO)c1nccc(Oc2ccc(NC(=O)c3cc(F)cc(N4CCCCC4)c3)c3ccccc23)n1 [Compound B373],0.674 µM,20.9 nM,
"CC1=NCCN1c1nccc(Oc2ccc(NC(=O)c3cc(F)cc(N4CCCCC4)c3)c3ccccc23)n1 [Compound B417, 3-Fluoro-N-(4-{[2-(2-methyl-4,5-dihydro-1 H-imidazol-1-yl)pyrimidin-4-yl]oxy}-1-naphthyl)-5-piperidin-1-ylbenzamide]",0.336 µM,12.7 nM,

SMILES,IC50 [1],IC50 (p38α),inhibition at 10 µM (p38α)
O=C(Nc1ccc(OCCN2CCOCC2)c2ccccc12)c1cccc(-c2cccc(F)c2F)c1 [Compound B288],10.1 µM,2720 nM,
"CNc1nccc(Oc2ccc(NC(=O)c3cc(F)cc(N4CCOCC4)c3)c3ccccc23)n1 [Compound B251, 3-Fluoro-N-(4-{[2-(methylamino)pyrimidin-4-yl]oxy}-1-naphthyl)-5-morpholin-4-ylbenzamide]",0.765 µM,134 nM,
CCCC/C=C/c1cccc(C(=O)Nc2ccc(OCCN3CCOCC3)c3ccccc23)c1 [Compound B99],5.57 µM,> 10000 nM,45%
CC(=O)c1ccc(-c2cccc(C(=O)Nc3ccc(OCCN4CCOCC4)c4ccccc34)c2)cc1 [Compound B274],> 10 µM,> 10000 nM,
"O=C(Nc1ccc(CCCN2CCOCC2)c2ccccc12)c1cc(F)cc(N2CCOCC2)c1 [Compound B240, 3-Fluoro-5-morpholin-4-yl-N-[4-(3-morpholin-4-yl-propyl)-naphthalen-1-yl]-benzamide]",1.01 µM,1010 nM,
O=C(Nc1ccc(OCCN2CCOCC2)c2ccccc12)c1cccc(N2CCC3CCCCC3C2)n1 (stereo not drawn) [Compound B71],> 10 µM,> 10000 nM,
CC1CCN(c2cc(C(=O)Nc3ccc(OCCN4CCOCC4)c4ccccc34)cc(Cl)n2)CC1 [Compound B218],3.58 µM,876 nM,
Cc1cc(Cl)ccc1-c1cccc(C(=O)Nc2ccc(OCCN3CCOCC3)c3ccccc23)c1 [Compound B293],> 10 µM,10300 nM,
"O=C(Nc1ccc(OCCN2CCOCC2)c2ccccc12)c1ccnc(N2CCOCC2)c1 [Compound B122, 2-Morpholin-4-yl-N-[4-(2-morpholin-4-yl-ethoxy)-naphthalen-1-yl]-isonicotinamide]",2.1 µM,3520 nM,73.5%
O=C(Nc1ccc(Oc2ccnc(N3CCC(F)(F)CC3)n2)c2ccccc12)c1cc(F)cc(N2CCOCC2)c1 [Compound B361],0.475 µM,55.5 nM,
COc1cccc(-c2cccc(C(=O)Nc3ccc(OCCN4CCOCC4)c4ccccc34)c2)c1 [Compound B91],3.55 µM,900 nM,78%
CC1CC(C)CN(c2nccc(Oc3ccc(NC(=O)c4cc(F)cc(N5CCCCC5)c4)c4ccccc34)n2)C1 (stereo not drawn) [Compound B391],> 1 µM,207 nM,
"O=C(Nc1ccc(OCCN2CCC(O)CC2)c2ccccc12)c1cc(F)cc(N2CCCCC2)c1 [Compound B158, 3-Fluoro-N-{4-[2-(4-hydroxypiperidin-1-yl)-ethoxy]-naphthalen-1-yl}-5-piperidin-1-yl-benzamide]",> 10 µM,2670 nM,72%
Cc1cc(C)c(-c2cccc(C(=O)Nc3ccc(OCCN4CCOCC4)c4ccccc34)c2)cc1C [Compound B302],> 10 µM,> 10000 nM,
"O=C(Nc1ccc(Oc2ccnc(N3CCCCC3)n2)c2ccccc12)c1cc(F)cc(N2CCCCC2)c1 [Compound B375, 3-Fluoro-5-piperidin-1-yl-N-{4-[(2-piperidin-1-ylpyrimidin-4-yl)oxy]-1-naphthyl}benzamide]",> 1 µM,107 nM,
O=C(Nc1ccc(OCCN2CCOCC2)c2ccccc12)c1cc(Br)ccc1Cl [Compound B38],> 10 µM,> 10000 nM,
O=C(Nc1ccc(OCCN2CCOCC2)c2ccccc12)c1cc(N2CCOCC2)nc(N2CCCC2)n1 [Compound B47],0.843 µM,> 10000 nM,
"CC(=O)N1CCN(c2cc(C(=O)Nc3ccc(OCCN4CCOCC4)c4ccccc34)ccn2)CC1 [Compound B123, 2-(4-Acetyl-piperazin-1-yl)-N-[4-(2-morpholin-4-yl-ethoxy)-naphthalen-1-yl]-isonicotinamide]",6.15 µM,5750 nM,50.5%
C[C@@H]1CN(CCOc2ccc(NC(=O)c3cccc(N4CCOCC4)c3)c3ccccc23)C[C@H](C)O1 [Compound B19],> 10 µM,8960 nM,65%
"O=C(Nc1ccc(OCCN2CCC3(CC2)OCCO3)c2ccccc12)c1cc(F)cc(N2CCCCC2)c1 [Compound B159, N-{4-[2-(1,4-Dioxa-8-aza-spiro[4.5]dec-8-yl)-ethoxy]-naphthalen-1-yl}-3-fluoro-5-piperidin-1-yl-benzamide]",> 10 µM,1090 nM,72.5%
